In patent publication US20060083759A1, “Stabilization of the profile of release of active substances from a formulation” (priority 2002, published 2006):

Assay: release (dissolution) of clarithromycin from tablets at aging / stability testing
Format: physicochemical
Settings: for change of tablet dissolution at aging: clarithromycin particle size over 200 μm
Excerpt: By comparing the profiles it has been established that the release rate of a high dosage active substance being poorly soluble in an aqueous medium from a formulation changes with aging, which is even more expressed in the conditions of an accelerated stability assay.
Thus recrystallization is kept at the lowest possible level. In the case of micronizing clarithromycin with large particles also the particle porosity and brittleness are reduced. Micronized clarithromycin can either be already the product of a basic synthesis process or it may be micronized later from clarithromycin with large particles.

changes in the release rate (particle size d(0.9) up to about 30 μm at the most, humidified with a minimum amount of water): minimized | change of tablet dissolution at aging (tablets made by aqueous granulation): noticeably decreases | change of tablet dissolution at aging (tablets made by direct tabletting): noticeably increases
Compound: CC[C@H]1OC(=O)[C@H](C)[C@@H](O[C@H]2C[C@@](C)(OC)[C@@H](O)[C@H](C)O2)[C@H](C)[C@@H](O[C@@H]2O[C@H](C)C[C@H](N(C)C)[C@H]2O)[C@](C)(OC)C[C@@H](C)C(=O)[C@H](C)[C@@H](O)[C@]1(C)O [clarithromycin]
